Data published in patent US20230147855A1, “METHODS OF GENERATING PLURIPOTENT STEM CELL-DERIVED VASCULAR SMOOTH MUSCLE CELLS, USES, AND COMPOSITION RELATED THERETO” (EMORY UNIVERSITY, priority 2020, published 2023).

Experiments:
hiPSC-VSMCs [1] = assay: Contractility of hiPSC-VSMCs in response to vasoactive agents; assay type: cell-based, human; details: hiPSC-VSMCs treated with agent; FIG. 6B
Description: (§1) A significant difference also between cells treated with carbachol and potassium chloride was observed (FIG. 6B).

hiPSC-VSMCs [2] = assay: Intracellular calcium flux (Fluo4 fluorescence) in hiPSC-VSMCs; assay type: cell-based, human; details: FIG. 6A
Description: as §1

SMILES | contractility (hiPSC-VSMCs [1]) | Fluo4 fluorescence (intracellular calcium flux) (hiPSC-VSMCs [2])
C[N+](C)(C)CCOC(N)=O [carbachol] | significantly increased contractility | dramatic increase
[Cl-].[K+] [KCl, potassium chloride] | significantly increased contractility | –
